# According to patent US20160184279A1, “METHODS OF TREATING PAIN AND/OR ITCH WITH SMALL MOLECULE INHIBITORS TARGETING AN mTOR PATHWAY” (Transderm, Inc., priority 2014, published 2016):
# Assay: Solubility of rapamycin in solvents
# Assay type: physicochemical
# Excerpt: Formulations for topical or transdermal delivery systems which effectively administer mTOR inhibitors to treat pain can be challenging to make. One such challenge can be caused by the structures of the various mTOR inhibitors and the associated solubility and/or stability challenges that exist for many of these compounds. […] Benzyl alcohol has been identified as a solvent that can effectively solubilize rapamycin. In particular, benzyl alcohol can support 20 wt % solutions and higher of rapamycin. […] For example, formulations utilizing Span 80 and/or Tween 20 as surfactants were only able to achieve benzyl alcohol loading of 20 wt % or less.
smiles,measurement,setting,value
CO[C@H]1C[C@@H]2CC[C@@H](C)[C@@](O)(O2)C(=O)C(=O)N2CCCC[C@H]2C(=O)O[C@H]([C@H](C)C[C@@H]2CC[C@@H](O)[C@H](OC)C2)CC(=O)[C@H](C)/C=C(\C)[C@@H](O)[C@@H](OC)C(=O)[C@H](C)C[C@H](C)/C=C/C=C/C=C/1C [rapamycin],"solubility in aqueous compositions, ethanolic compositions, triglycerides, alkanes, and silicone systems",,poorly solubilized
same,solubility in benzyl alcohol,benzyl alcohol solution,≥ 20 wt %
